Experimental data taken from US20240309018A1, “THIAZOLE-LACTAM-SPIROHETEROCYCLIC COMPOUNDS AND APPLICATIONS THEREOF” (D3 BIO (WUXI) CO., LTD, priority 2021, published 2024).

Key:
[1] = system: HT29 tumor cells; test: In vitro cell proliferation inhibition (CellTiterGlo); assay type: cell-based; details: Homo sapiens, HT-29
Experimental: The ability of the compound to inhibit the proliferation of HT29 tumor cells was measured.
The assay compound was dissolved in 100% DMSO to prepare 10 mM stock solution.
• 1) UV light of a biological safety cabin was turned on, and 30 minutes were counted down; • 2) In a 37° C. water bath, RPMI1640 medium and trypsin were preheated; • 3) After completion of the UV irradiation, the biological safety cabin was opened. The preheated medium, trypsin and phosphate buffered saline (PBS), etc. were wiped with alcohol and placed in the biological safety cabin; • 4) HT29 cells were removed from the incubator, and the old medium was removed in biological safety cabin. 10 ml of PBS was added. The mixture was shaken gently, and then PBS was removed; • 5) 1.5 ml of preheated 0.25% trypsin was added. […] The signal value was then detected. The data were analyzed using XL-Fit, and the IC50 of each compound was calculated.

[2] = system: human melanoma A375 cells; test: In vivo efficacy in subcutaneous xenograft tumor model of human melanoma A375; details: PO, BID, day 21, BALB/c nude mouse A375 xenograft
Experimental: The anti-tumor effect of WX001 was evaluated using a subcutaneous xenograft tumor model of human melanoma A375 cells in nude mouse.
• Species: mouse • Strain: BALB/c nude mouse • Age: 6-8 weeks old • Gender: female • Body weight: 18-22 grams • Supplier: Vital River Laboratory Animal Technology Co., Ltd.
• 1) Assay cells and culture: Human melanoma A375 cells were cultured in monolayer in vitro. The culture conditions were DMEM medium plus 10% fetal bovine serum, and a 37° C. 5% CO2 incubator. Routine digestion with trypsin-EDTA was performed twice a week for passage. When the cell saturation was 80%-90% and the amount reached the requirement, the cells were harvested, counted, and inoculated: • 2) Tumor tissue inoculation and grouping: 0.1 mL (5×10^5) of A375 cells were subcutaneously inoculated into the right armpit of each mouse. When the average tumor volume reached 170 mm^3, the animals were randomly divided into 4 groups and the administration was started.
• 3) Daily observation of assay animals: The development of this assay protocol and any modifications were evaluated and approved by the Institutional Animal Care and Use Committee (IACUC). […] Animals were monitored daily for health and death. […] Animal deaths and side effects in each group were recorded based on the number of animals in each group. • 4) Formulation of assay compound • a) Vehicle group: 5% DMSO+95% (20% HP-β-CD). • b) Assay compound group: A quantitative amount of the assay compound was weighed in a formulation bottle. […] A corresponding volume of 20% HP-β-CD was added and then the mixture was vortexed to obtain a homogeneous suspension. • 5) Tumor measurement and assay indicator: • a) Tumor diameter was measured twice a week with a vernier caliper. The calculation formula of tumor volume was: TV=1/2×a×b^2, wherein a and b represent the long and short diameters of tumor, respectively: • b) The tumor-inhibitory efficacy of the compound was evaluated by TGI (%). […]

[3] = system: human plasma albumin; test: Plasma protein binding (ultracentrifugation), human; assay type: in vitro ADME; further: tested at 0.2 µM
Experimental: The binding degree of the assay compound to human/mouse/rat/canine/monkey plasma albumin was studied.
• 1) Matrix preparation: on the day of the assay, plasma was thawed in cold water and centrifuged at 3220 rpm for 5 min to remove all clots. The pH of the resulting plasma was measured and adjusted to 7.4±0.1 using 1% phosphoric acid or IN sodium hydroxide as needed. • 2) Dilution procedure for the assay compound: the assay compound was dissolved in dimethyl sulfoxide (DMSO) to prepare stock solutions with concentrations of 10 mM and 2 mM, respectively. A 40 μM working solution was prepared by diluting 2 μL of stock solution (2 mM) with 98 μL of DMSO. A 400 μM working solution of the control compound was prepared by diluting 10 μL of stock solution with 240 μL of DMSO. The working solution of the compound (5 μL) was mixed well with a blank matrix (995 μL) at a ratio of 1:200 to prepare a loading matrix.
• a) An equal volume of 30 μL of loading matrix (n=2) was transferred to a sample collection plate to prepare a time 0 (TO) sample for residue determination. The sample was immediately matched with the corresponding blank buffer to a final volume of 60 μL, and the volume ratio of plasma to buffer in each well was 1:1. […] The mixture was centrifuged at 4000 rpm for 20 min and 100 μL of supernatant from each sample was analyzed by LC-MS/MS.

Molecule `Cc1cccc(CN2C(=O)c3nc(-c4nc(Nc5ccnn5C)ncc4C)sc3C23COC3)n1` [WX001] has an IC50 [1] of 66 nM, a TGI ([2]; 12.5 mg/kg) of 45% and a TGI ([2]; 25 mg/kg) of 58%. For the same molecule, the TGI ([2]; 50 mg/kg) was 102% and the “Plasma protein binding rate (unbound %)” value [3] was 15.9%.
